# Results: patent US20220332742A1, “Naringin-Loaded Metal Organic Frameworks” (Colgate-Palmolive Company, priority 2021, published 2022)
# Key:
# Assay type in all cases: cell-based
# Bacillus subtilis = test: Antibacterial activity, MIC by micro-dilution method; conditions: TSB, lowest concentration that completely inhibits growth
# Method: The antibacterial activity of the prepared MOF complexes is determined against Bacillus subtilis, by calculating minimal inhibitory concentration (MIC) using the micro-dilution method. Briefly, test samples are diluted with TSB solution to 2 mg/mL, and then further serial dilutions are prepared in TSB. Bacterial cultures are incubated in TSB for 16 hours, then 100 microliter suspensions are transferred to 4 mL of fresh medium and incubated for another 6 hours in order to reach mid-log phase stage. Then, the bacteria are diluted to provide 10^6 colony-forming units per mL (CFU/mL) based on OD600 measurement. […] The tested products are the naringin-loaded MOF prepared from 0.5 mg/ml naringin in ethanol, 0.5 mg/mL naringin in 1:4 ethanol/water solution, and 1 mg/mL naringin in 1:2.2 ethanol/water solution.
# [1] = EL4 T cell viability, ATP viability assay (ATPLite 1-step Luminescence); conditions: mouse, EL4 T cells
# Method: The ability of naringin-loaded MIL-101(Fe) to promote the viability of EL4 T cells is evaluated using the ATP viability assay (Perkin Elmer, ATPLite 1-step Luminescence Assay). EL4 T cells are seeded at 8000 cells/mL in white 96-well plates and incubated with either naringin or naringin-loaded MIL-101(Fe) (Example 1(d)) at the following concentrations: 3.125, 6.25, 12.5, 25, 50, 100, and 200 μg/mL. The ATP kit solution is then added to each well, and a 96-well microplate reader is used to measure total luminescence. Cell viability is calculated as a percentage of the luminescence of the untreated control.
# [2] = system: H1299 mouse lung tumor cells; test: Tumor cell cytotoxicity, ATP viability assay (ATPLite 1-step Luminescence)
# Method: The ability of naringin-loaded MIL-101(Fe) to kill H1299 […] lung tumor cells is evaluated using the ATP viability assay (Perkin Elmer, ATPLite 1-step Luminescence Assay). H1299 cells are seeded at 5000 cells/mL in white 96-well plates and incubated with either MIL-101(Fe), naringin or naringin-loaded MIL-101(Fe) (Example 1(d) at the following concentrations: 0, 3.125, 25, 50, 100, and 200 μg/mL. The ATP kit solution is then added to each well, and a 96-well microplate reader is used to measure total luminescence. Cell viability is calculated as a percentage of the luminescence of the untreated control. The results are shown in the following table: […]
# TNF-alpha = TNF-alpha release from EL4 T cells, ELISA; conditions: 24 hours
# Method: (§1) The ability of naringin-loaded MIL-101(Fe) to promote the release of IL-2 and TNF-alpha from EL4 T cells is evaluated. Enzyme-linked immunosorbent assay (ELISA) is performed according to the manufacturer specifications. Briefly, EL-4 T-cells are incubated in 96-well plates at an initial density of 8000 cells/well. The cell cultures are treated with either MIL-101(Fe), naringin or naringin-loaded MIL-101(Fe) (Example 1(d)) at the following concentrations in PBS: 0, 100, and 200 μg/mL. The plates are incubated for 24 hours at 37° C. in 5% CO2 atmosphere. The solutions are then transferred to a V-shaped 96 well plate and centrifuged at 500 g for 5 minutes. The supernatant solutions are then collected and the recommend ELISA protocol is performed. Absorbance at 450 and 540 nm is measured using a 96-well plate reader, and the results are compared to cytokine standard solutions.
# IL-2 = IL-2 release from EL4 T cells, ELISA; conditions: 24 hours
# Method: as §1
# [3] = 3.125 µg/mL of agent, % of untreated control
smiles,measurement,setting,value
C[C@@H]1O[C@@H](O[C@H]2[C@H](Oc3cc(O)c4c(c3)O[C@H](c3ccc(O)cc3)CC4=O)O[C@H](CO)[C@@H](O)[C@@H]2O)[C@H](O)[C@H](O)[C@H]1O [Naringin],MIC,Bacillus subtilis,5000 µg/mL
same,viability at 3.125 µg/mL,[1]; [3],77%
same,viability at 6.25 µg/mL,[1]; 6.25 µg/mL of agent,75.8%
same,viability at 12.5 µg/mL,[1]; 12.5 µg/mL of agent,72.1%
same,viability at 25 µg/mL,[1]; 25 µg/mL of agent,67%
same,viability at 50 µg/mL,[1]; 50 µg/mL of agent,74.9%
same,viability at 100 µg/mL,[1]; 100 µg/mL of agent,80.3%
same,viability at 200 µg/mL,[1]; 200 µg/mL of agent,84.7%
same,Cell viability (%),[2]; [3],85.97%
same,Cell viability (%),[2]; 25 µg/mL of agent,73.26%
same,Cell viability (%),[2]; 50 µg/mL of agent,80.15%
same,Cell viability (%),[2]; 100 µg/mL of agent,87.10%
same,Cell viability (%),[2]; 200 µg/mL of agent,83.23%
same,TNF-alpha concentration,TNF-alpha; 100 µg/mL of agent,10.64 pg/mL
same,TNF-alpha concentration,TNF-alpha; 200 µg/mL of agent,9.92 pg/mL
same,IL-2 concentration,IL-2; 100 µg/mL of agent,15.22 pg/mL
same,IL-2 concentration,IL-2; 200 µg/mL of agent,16.49 pg/mL
